Data set [1] is described as follows: Antifungal activity against Cryptococcus gattii VGI assessed as inhibition of fungal growth. It counts as functional.
For data set [2], the system named is Cryptococcus neoformans. Briefly: Antifungal activity against Cryptococcus neoformans assessed as inhibition of fungal growth. It is filed as functional.
The subject of a further data set is Candida tropicalis. Briefly: Antifungal activity against Candida tropicalis ATCC 750 assessed as inhibition of fungal growth incubated for 24 to 48 hrs by CLSI protocol based broth microdilution method. It counts as functional. The settings on record: time 24-48 hrs. Background: Dilution methods test growth across graded concentrations, often in twofold steps.

Data set [3] is described as follows: Efflux ratio of apparent permeability across basolateral to apical over apical to basolateral side in human Caco-2 cells measured after 30 to 180 mins by HPLC-MS analysis. It is filed as ADME, cell-based. Particulars: time 30-180 min. For orientation: Caco-2 monolayers are a common model of the intestinal barrier.
Data set [4] in a line: Cytotoxicity against human PBMC cells assessed as inhibition of cell growth incubated for 24 to 48 hrs by MTT assay. It counts as toxicity, cell-based. A general note: Tetrazolium assays rely on reduction of a dye to a coloured formazan, in cell work by metabolically active cells.
A short description of data set [5]: Antifungal activity against Cryptococcus gattii ATCC 24065 assessed as inhibition of fungal growth incubated for 24 to 48 hrs by CLSI protocol based broth microdilution method. It is filed as functional, Cryptococcus gattii VGI. The settings on record: time 24-48 hrs.
Data set [6] concerns Cryptococcus neoformans. Briefly: Antifungal activity against Cryptococcus neoformans ATCC 24067 assessed as inhibition of fungal growth incubated for 24 to 48 hrs by CLSI based broth microdilution method. It is filed as functional. Particulars: time 24-48 hrs.
Data set [7] relates to Cryptococcus neoformans. Briefly: Antifungal activity against Cryptococcus neoformans H99 infected in Tenebrio molitor larvae assessed as survival rate of larvae at 80 microg/ml measured after 24 hrs. It is filed as functional.
The nature of data set [8]: Apparent permeability across basolateral to apical side in human Caco-2 cells measured after 30 to 180 mins by HPLC-MS analysis. It counts as ADME, cell-based. The settings on record: time 30-180 min.
Another data set concerns Candida parapsilosis. Briefly: Antifungal activity against Candida parapsilosis ATCC 22019 assessed as inhibition of fungal growth incubated for 24 to 48 hrs by CLSI protocol based broth microdilution method. It counts as functional. Particulars: Lodderomyces parapsilosis, time 24-48 hrs.
For another data set, the system named is Nakaseomyces glabratus. Briefly: Antifungal activity against Candida glabrata ATCC 2001 assessed as inhibition of fungal growth incubated for 24 to 48 hrs by CLSI protocol based broth microdilution method. It is filed as functional. The settings on record: time 24-48 hrs.
Data set [9] is described as follows: Apparent permeability across apical to basolateral side in human Caco-2 cells measured after 30 to 180 mins by HPLC-MS analysis. It is filed as ADME, cell-based. Particulars: time 30-180 min.
The test system of the next data set is Caco-2. Briefly: Cytotoxicity against human Caco-2 cells assessed as reduction in cell viability at 10 to 40 microg/ml measured upto 12 hrs by MTT assay. It counts as functional. The settings on record: dose 10-40 µg/ml, at 10 to 40 µg/mL.
The subject of another data set is Pichia kudriavzevii. Put plainly: Antifungal activity against Candida krusei ATCC 20298 assessed as inhibition of fungal growth incubated for 24 to 48 hrs by CLSI protocol based broth microdilution method. It is filed as functional. Particulars: time 24-48 hrs.
The next data set relates to [Candida] auris. Put plainly: Antifungal activity against Candida auris COLO 01 assessed as inhibition of fungal growth incubated for 24 to 48 hrs by CLSI protocol based broth microdilution method. It counts as functional. Particulars: Candidozyma auris, time 24-48 hrs.
A further data set deals with Candida albicans. Briefly: Antifungal activity against Candida albicans SC5314 assessed as inhibition of fungal growth incubated for 24 to 48 hrs by CLSI protocol based broth microdilution method. The settings on record: time 24-48 hrs. It counts as functional.

Experimental findings from ChEMBL document CHEMBL5375986, “Discovery of Lead 2-Thiazolylhydrazones with Broad-Spectrum and Potent Antifungal Activity” (J Med Chem, 2023) are described below.

Molecules are shown by their SMILES. ≈ marks a conversion by molar mass, not a printed value. Bounds are passed on as bounds.

One may read the MIC as the lowest concentration that inhibits growth of the organism. The efflux ratio is the permeability from basolateral to apical divided by that in the opposite direction, in the common usage. Usually IC50 stands for the midpoint of a concentration-inhibition curve. For orientation: Papp B→A means the apparent permeability from the basolateral to the apical side of a cell layer. A word on the Papp A→B: it is the apparent permeability from the apical to the basolateral side of a cell layer.

In the case of `C(=N\Nc1nc(-c2ccccc2)cs1)/C1CCCCC1`, the MIC (in data set [1]; in the data set on Cryptococcus neoformans [2]) was 0.9 µM (≈ 0.257 µg/mL) each time.
Take `COc1ccc(-c2csc(N/N=C/C3CCCCC3)n2)cc1`: the results for the MIC (in [1]; with Cryptococcus neoformans [2]) were 1.58 µM (≈ 0.498 µg/mL) and 0.79 µM (≈ 0.249 µg/mL), respectively.
Consider `c1ccc(-c2csc(NN=C3CCCC3)n2)cc1`, for which the MIC (in data set [1]; with Cryptococcus neoformans [2]) was 1.94 µM (≈ 0.499 µg/mL) throughout.
Consider `CCOC(=O)Cc1csc(N/N=C(\C)CCC(=O)O)n1`, for which the MIC came out at 0.8 µM (≈ 0.239 µg/mL) with Candida tropicalis; 3.2 µM (≈ 0.958 µg/mL) in data set [5]; 3.2 µM (≈ 0.958 µg/mL) in the data set on Cryptococcus neoformans [6]; 1.6 µM (≈ 0.479 µg/mL) with Candida parapsilosis; 52.2 µM (≈ 15.6 µg/mL) in the data set on Nakaseomyces glabratus; 0.8 µM (≈ 0.239 µg/mL) in the data set on Pichia kudriavzevii. The MIC in data set [Candida] auris turned out to be 1.6 µM (≈ 0.479 µg/mL); with Candida albicans, 3.2 µM (≈ 0.958 µg/mL). Also, the efflux ratio in [3] was determined as 3.58. For the same compound, the IC50 in data set [4] is over 500 µM. Also, in the data set with Cryptococcus neoformans [7], the survival at 80 µg/mL is 63%. Also, the Papp B→A in [8] turned out to be 5.26 ×10⁻⁶ cm/s. Further, the apical-to-basolateral permeability (Papp A→B) in data set [9] amounted to 1.47 ×10⁻⁶ cm/s. In the data set with Caco-2, the Activity is recorded as over 70%.
Regarding `CCOC(=O)c1sc(NN=C2CCOCC2)nc1C`, the MIC (with Candida tropicalis; in data set [5]; with Cryptococcus neoformans [6]; in the data set with Candida parapsilosis; in the data set on Nakaseomyces glabratus; in the data set on Pichia kudriavzevii) was over 125 µM in each case. The MIC (in [Candida] auris; in the data set with Candida albicans) was over 125 µM each time.
Take `CCOC(=O)/C(C)=N/Nc1nc(-c2ccc(OC)cc2)cs1`: the MIC (with Candida tropicalis; in [5]; in the data set on Cryptococcus neoformans [6]; in the data set with Candida parapsilosis; in the data set with Nakaseomyces glabratus; in the data set on Pichia kudriavzevii) was over 125 µM throughout. Further, the MIC (in [Candida] auris; in the data set with Candida albicans) was over 125 µM each time.
On to `CCOC(=O)Cc1csc(NN=C(C)C(=O)OCC)n1`, for which the minimum inhibitory concentration (MIC) in the data set with Candida tropicalis is 104 µM (≈ 31.3 µg/mL); in [5] it was over 125 µM; in the data set on Cryptococcus neoformans [6], over 125 µM; with Candida parapsilosis, 104 µM (≈ 31.3 µg/mL); in the data set with Nakaseomyces glabratus it was 52.2 µM (≈ 15.6 µg/mL); in the data set on Pichia kudriavzevii, 13 µM (≈ 3.89 µg/mL). The MIC (in [Candida] auris; in the data set with Candida albicans) was 104 µM (≈ 31.3 µg/mL) each time.
Regarding `C/C(CCC(=O)O)=N\Nc1nc(-c2ccc(Cl)cc2)cs1`, the minimum inhibitory concentration (MIC) in the data set with Candida tropicalis was 6 µM (≈ 1.94 µg/mL); in data set [5], 1.5 µM (≈ 0.486 µg/mL); in the data set on Cryptococcus neoformans [6] it was 3 µM (≈ 0.971 µg/mL); in the data set with Candida parapsilosis it was 6 µM (≈ 1.94 µg/mL); with Nakaseomyces glabratus, 96.5 µM (≈ 31.2 µg/mL); in the data set with Pichia kudriavzevii, 1.5 µM (≈ 0.486 µg/mL). Moreover, the minimal inhibitory concentration (MIC) is 0.7 µM (≈ 0.227 µg/mL) in [Candida] auris and 1.5 µM (≈ 0.486 µg/mL) in the data set with Candida albicans.
Take `C/C(CCC(=O)O)=N\Nc1nc(-c2ccc(Br)cc2)cs1`: the minimum inhibitory concentration (MIC) was determined as 2.6 µM (≈ 0.957 µg/mL) in the data set with Candida tropicalis; 1.3 µM (≈ 0.479 µg/mL) in data set [5]; 2.6 µM (≈ 0.957 µg/mL) with Cryptococcus neoformans [6]; 1.3 µM (≈ 0.479 µg/mL) in the data set with Candida parapsilosis; 42.4 µM (≈ 15.6 µg/mL) in the data set with Nakaseomyces glabratus; 1.3 µM (≈ 0.479 µg/mL) in the data set with Pichia kudriavzevii. For the same compound, the minimal inhibitory concentration (MIC) (in data set [Candida] auris; in the data set on Candida albicans) was 0.3 µM (≈ 0.11 µg/mL) each time.
For the compound `COc1ccc(-c2csc(N/N=C(\C)CCC(=O)O)n2)cc1`, the MIC in the data set on Candida tropicalis stood at 6.1 µM (≈ 1.95 µg/mL); in data set [5], 0.2 µM (≈ 0.0639 µg/mL); in the data set on Cryptococcus neoformans [6] it was 0.8 µM (≈ 0.256 µg/mL); in the data set with Candida parapsilosis, 3 µM (≈ 0.958 µg/mL); in the data set on Nakaseomyces glabratus, 48.9 µM (≈ 15.6 µg/mL); in the data set with Pichia kudriavzevii it was 1.5 µM (≈ 0.479 µg/mL). Moreover, the MIC in data set [Candida] auris came out at 1.5 µM (≈ 0.479 µg/mL); in the data set on Candida albicans, 3 µM (≈ 0.958 µg/mL).
With `CCOC(=O)/C(C)=N/Nc1nc(-c2ccc(Cl)cc2)cs1`, the MIC (in the data set on Candida tropicalis; in data set [5]; in the data set on Cryptococcus neoformans [6]; with Candida parapsilosis; with Nakaseomyces glabratus; in the data set with Pichia kudriavzevii) was over 125 µM in each case. Further, the MIC (in [Candida] auris; in the data set on Candida albicans) was over 125 µM throughout.
Turning to `C/C(CCC(=O)O)=N\Nc1nc(-c2ccc(C#N)cc2)cs1`, the MIC with Candida tropicalis is 24.8 µM (≈ 7.8 µg/mL); in data set [5], 1.5 µM (≈ 0.472 µg/mL); in the data set with Cryptococcus neoformans [6] it was 1.5 µM (≈ 0.472 µg/mL); in the data set on Candida parapsilosis, 6.2 µM (≈ 1.95 µg/mL); with Nakaseomyces glabratus, 49.7 µM (≈ 15.6 µg/mL); in the data set on Pichia kudriavzevii it was 1.5 µM (≈ 0.472 µg/mL). For the same compound, the MIC in [Candida] auris came to 0.8 µM (≈ 0.251 µg/mL); in the data set with Candida albicans, 3.1 µM (≈ 0.975 µg/mL).
As to `C/C(CCC(=O)O)=N\Nc1nc(-c2ccc(F)cc2)cs1`, the minimal inhibitory concentration (MIC) came to 6.3 µM (≈ 1.94 µg/mL) in the data set on Candida tropicalis; 3.2 µM (≈ 0.984 µg/mL) in data set [5]; 3.2 µM (≈ 0.984 µg/mL) in the data set on Cryptococcus neoformans [6]; 1.6 µM (≈ 0.492 µg/mL) with Candida parapsilosis; 50.8 µM (≈ 15.6 µg/mL) with Nakaseomyces glabratus; 1.6 µM (≈ 0.492 µg/mL) in the data set on Pichia kudriavzevii. Moreover, the MIC in [Candida] auris was 0.8 µM (≈ 0.246 µg/mL); with Candida albicans, 3.2 µM (≈ 0.984 µg/mL).
